Holding throughout (type): cell-based, Human
The test system of test [1] is IR-treated lung cancer cell line A549. Kind of test: Cell viability of IR-treated lung cancer cells under inhibitor treatment.
The subject of test [2] is vimentin, MMP2, MMP9, p-EGFR, p-Src, p-STAT3. The test can be described thus: Western blot of EMT-related and signaling proteins in IR-treated A549 cells. Particulars: 24 hours. The method, then: In addition, lung cancer cell line A549 (control) and IR-treated lung cancer cell line A549 (IR) were seeded at 1×10^6 in a 60π dish and treated with EGFR inhibitor (EGFR inh), Src inhibitor (Src inh), and STAT3 inhibitor (STAT3 inh). The cells were treated by IR (IR-EGFR inh, IR-Src inh, and IR-STAT3 inh). The cells were harvested 24 hours later, and protein was extracted. Then, Western blot was performed to confirm the expressions of RIP1, vimentin, MMP2, MMP9, p-Src, Src, p-STAT3, STAT3, and β-action, and the results are shown in FIG. 3B (EGFR inhibitor), FIG. 3C (Src inhibitor), and FIG. 3D (STAT3 inhibitor).
(§1) In addition, lung cancer cell line A549 (control) and IR-treated lung cancer cell line A549 (IR) were seeded at 1×10^6 in a 60π dish and treated with necrostatin. The cells were harvested 24 hours later, and protein was extracted. Then, Western blot was performed to confirm the expressions of RIP1, vimentin, MMP2, MMP9, p-EGFR, EGFR, β-action, p-Src, Src, p-STAT3, and STAT3, and the results are shown in FIGS. 4D and 4E.
In addition, the same experiment as the above experiment was performed by treating a commercially available siRNA capable of inhibiting the expression of RIP1, and the results are shown in FIGS. 5A-5D.
For orientation: Immunoblotting shows a protein as a band on a membrane.

In the next test the test system is RIP1. Kind of test: Western blot of RIP1 expression in IR-treated A549 cells. Particulars: 24 hours. The method, then:
In addition, lung cancer cell line A549 (control) and IR-treated lung cancer cell line A549 (IR) were seeded at 1×10^6 in a 60π dish and treated with EGFR inhibitor (EGFR inh), Src inhibitor (Src inh), and STAT3 inhibitor (STAT3 inh). The cells were treated by IR (IR-EGFR inh, IR-Src inh, and IR-STAT3 inh). The cells were harvested 24 hours later, and protein was extracted.
as §1
In addition, lung cancer cell line A549 (control) and IR-treated lung cancer cell line A549 (IR) were seeded with 1×10^6 in a 60π dish and were treated with an NF-κB inhibitor. The cells were harvested 24 hours later, and protein was extracted. Then, Western blot was performed to confirm the expressions of RIP1, vimentin, MMP2, MMP9, p-IκBα, p-P65, p50, and p105.

Test [3] concerns IR-treated lung cancer cell line A549. The test can be described thus: Transwell invasion and migration assay of IR-treated lung cancer cells. Particulars: IR (10 Gy)-treated A549, transwell, 24 hours. As for the experimental part:
Lung cancer cells (A549) (5×10^5) were seeded in 60 mm dishes and cultured overnight, followed by IR exposure (10 Gy) using a 137 Cs radiation source (Atomic Energy of Canada, Ltd., Mississauga, ON, Canada) to obtain IR-treated lung cancer cell lines (A549 IR (10 Gy)).
In order to analyze the cell invasion of lung cancer cells by IR treatment, Matrigel-coated transwells (Corning N. Y., USA) were used, and in order to analyze cell migration, collagen-coated transwells (Corning, N.Y., USA) were used.
Lung cancer cell line A549 (control) and IR-treated lung cancer cell line A549 (IR) were placed in an upper chamber by 5×10^4 in a Matrigel-coated transwell, and treated with EGFR, Scr, and STAT3 inhibitors, respectively. Then, 10% FBS medium was put into the lower chamber, and cells passing through the transwell were stained after 24 hours to confirm cell invasion, and the results are shown in […].
Lung cancer cell line A549 (control) and IR-treated lung cancer cell line A549 (IR) were placed in an upper chamber by 5×10^4 in a Matrigel-coated transwell and treated with necrostatin. Then, 10% FBS medium was put into the lower chamber, and cells passing through the transwell were stained after 24 hours to confirm cell invasion, and the results are shown in FIGS. 4A and 4B. […]

In test [4] the test system is vimentin, MMP-2/9, E-cadherin. Kind of test: Immunoblot analysis of EMT markers with or without IL-Ra under IR irradiation. As for the experimental part:
Immunoblot analysis of samples treated with or without IL-Ra (an antagonist of IL-1β) under IR irradiation conditions was performed, and the results are shown in FIG. 8A.

Consider `CN1C(=O)C(Cc2c[nH]c3ccccc23)NC1=S` (stereo not drawn) [necrostatin, Necrostatin-1], for which the “cell viability compared with lung cancer cell line not treated with radiation (control)” value in test [1] is reported as “almost similar”. In addition, the “activities/expression of vimentin, MMP2, MMP9, p-EGFR, p-Src, p-STAT3 (EMT-related factors)” value in test [2] is on record as “decreased activities”. Besides, the RIP1 expression result with RIP1 is “decreased expression”. The “cell invasion and cell migration” value in test [3] is on record as “reduced”.
For IL-Ra: an antagonist of IL-1β, the “cell invasion and cell migration” value in test [3] is reported as “almost completely blocked”. For the same molecule, the “IR-induced increase of vimentin and MMP-2/9 expressions and decrease of E-cadherin” value in test [4] was “inhibiting this action”.

The values are drawn from patent US20230099264A1, “Biomarker for Predicting Prognosis of Radiotherapy for Lung Cancer” (Korea Institute of Radiological & Medical Sciences, priority 2020, published 2023).
